Counter-ions that a name gives are not always drawn.
Experiments:
cardiac arrhythmias = conditions: cited from earlier work
[1] = target: T1, Na^+ /H^+ exchanger of rabbit erythrocytes (Oryctolagus cuniculus, UniProt P23791); assay: Inhibition of the Na^+ /H^+ exchanger of rabbit erythrocytes (amiloride-sensitive sodium influx, flame photometry); type: cell-based, rabbit (New Zealand White); conditions: pH 7.4, 37° C., hyperosmolar salt/sucrose medium
T1 construct: exchanger of rabbit erythrocytes; from tissue; host or cells: erythrocytes in blood of cholesterol-fed New Zealand White rabbits
Source text: Inhibition of the Na^+ /H^+ exchanger of rabbit erythrocytes
New Zealand White rabbits (Ivanovas) received a standard diet containing 2% cholesterol for six weeks in order to activate the Na^+ /H^+ exchange and thus to be able to determine, by flame photomerry, the Na^+ influx into the erythrocytes via Na^+ /H^+ exchange. The blood was removed from the aural arteries and rendered incoagulable using 25 IU of potassium heparin. A part of each sample was used for the duplicate determination of the hematocrit by means of centrifugation. Aliquots of in each case 100 μl were used for measuring the initial Na^+ content of the erythrocytes.
In order to determine the amiloride-sensitive sodium influx, 100 μl of each blood sample were in each case incubated, at pH 7.4 and 37° C., in 5 ml of a hyperosmolar salt/sucrose medium (mmol/1: 140 NaCl, 3 KCl, 150 sucrose, 0.1 ouabain, 20 tris(hydroxymethyl)aminomethane). The erythrocytes were then washed three times with ice-cold MgCl2 /ouabain solution ([…]: 112 MgCl2, 0.1 ouabain) and hemolyzed in 2.0 ml of distilled water. The intracellular sodium content was determined by flame photometry.
The net influx of Na^+ was calculated from the difference between the initial sodium values and the sodium content of the erythrocytes following incubation. The amiloride-inhibitable sodium influx was calculated from the difference in the sodium content of the erythrocytes following incubation with and without amiloride 3×10^-4 mol/1. This method was also employed in the case of the compounds according to the invention.

T1 sequence (P23791 whole entry): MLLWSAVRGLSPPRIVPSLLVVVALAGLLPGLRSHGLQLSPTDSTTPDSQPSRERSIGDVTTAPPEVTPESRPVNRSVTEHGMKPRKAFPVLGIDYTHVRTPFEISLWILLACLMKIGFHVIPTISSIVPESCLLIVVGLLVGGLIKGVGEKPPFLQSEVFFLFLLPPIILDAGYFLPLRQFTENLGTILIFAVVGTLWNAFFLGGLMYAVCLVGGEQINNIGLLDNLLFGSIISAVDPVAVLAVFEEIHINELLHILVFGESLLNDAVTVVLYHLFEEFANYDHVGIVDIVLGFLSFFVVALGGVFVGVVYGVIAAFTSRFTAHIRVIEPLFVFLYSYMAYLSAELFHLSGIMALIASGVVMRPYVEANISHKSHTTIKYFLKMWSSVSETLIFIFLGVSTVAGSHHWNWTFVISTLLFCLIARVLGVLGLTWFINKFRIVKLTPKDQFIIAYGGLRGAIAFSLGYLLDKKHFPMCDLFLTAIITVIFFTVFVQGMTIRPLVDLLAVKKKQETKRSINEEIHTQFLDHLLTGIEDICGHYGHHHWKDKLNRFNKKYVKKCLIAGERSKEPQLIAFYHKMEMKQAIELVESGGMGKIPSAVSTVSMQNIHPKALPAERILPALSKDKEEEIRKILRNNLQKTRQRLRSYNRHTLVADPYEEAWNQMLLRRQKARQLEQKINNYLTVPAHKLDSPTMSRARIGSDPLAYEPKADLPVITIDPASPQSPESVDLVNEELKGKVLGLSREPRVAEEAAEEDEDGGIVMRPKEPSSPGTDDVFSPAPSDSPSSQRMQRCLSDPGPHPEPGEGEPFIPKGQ

SMILES | IC50 [1] [nM] | antiarrhythmic effect (cardiac arrhythmias; Circulation 79, 1257 to 1263 (1989)) | hypotensive and saluretic side effects (cardiac arrhythmias; in vivo)
N=C(N)NC(=O)c1nc(Cl)c(N)nc1N [amiloride, Amiloride] | – | only weakly expressed | accompanied by hypotensive and saluretic effects
CS(=O)(=O)c1cc(C(=O)N=C(N)N)ccc1Oc1ccc(-c2ncc[nH]2)cc1 [Example 2, 4-(Imidazol-2-yl)phenoxy-3-methylsulfonylbenzoylguanidine, dihydrochloride] | 300 | – | –
CS(=O)(=O)c1cc(C(=O)N=C(N)N)ccc1Oc1ccc(-c2nccn2Cc2ccccc2)cc1 [Example 1, 4-(1-Benzylimidazol-2-yl)phenoxy-3-methylsulfonylhenzoylguanidine, dihydrochloride] | 300 | – | –

More lines, main results first:

IC50 [1] [nM] | SMILES | antiarrhythmic effect (cardiac arrhythmias; Circulation 79, 1257 to 1263 (1989)) | hypotensive and saluretic side effects (cardiac arrhythmias; in vivo)
200 | CS(=O)(=O)c1cc(C(=O)N=C(N)N)ccc1Oc1ccc(-c2cccnc2)cc1 [Example 3, 4-[4-(3-Pyridyl)phenoxy]-3-methylsulfonylbenzoylguanidine, dihydrochloride] | – | –
300 | CS(=O)(=O)c1cc(C(=O)N=C(N)N)ccc1Oc1ccc(-c2ccccn2)cc1 [Example 5, 4-[4-(2-Pyridyl)phenoxy]-3-methylsulfonylbenzoylguanidine, dihydrochloride] | – | –

From US5719169A, “Substituted benzoylguanidines, their use as a medicament or diagnostic, and medicament containing them” (priority 1993, dated 1998)
